Measurements as given in article PMC3351444, “Molecular Evolution of a Peptide GPCR Ligand Driven by Artificial Neural Networks” (PLoS ONE, 2012).
Square brackets hold non-standard residues; d marks the D form. Ends that are not written are not given here. Peptide text beside a SMILES is read from it.

Tests used:
human CMKLR1 = biological target: T1, human CMKLR1 (Homo sapiens, UniProt Q99788); assay: Ca2+ mobilization (CellLux imaging) agonist assay in HEK293A cells expressing CMKLR1 and Gα15; assay type: cell-based; conditions: Ca2+ mobilization, CMKLR1, decimal comma; for EC50: NR where no EC50 is given, read-out: EC50
T1 construct: host or cells: HEK293A (Invitrogen), stably expressing human Gα15
T1 sequence (Q99788 1-373): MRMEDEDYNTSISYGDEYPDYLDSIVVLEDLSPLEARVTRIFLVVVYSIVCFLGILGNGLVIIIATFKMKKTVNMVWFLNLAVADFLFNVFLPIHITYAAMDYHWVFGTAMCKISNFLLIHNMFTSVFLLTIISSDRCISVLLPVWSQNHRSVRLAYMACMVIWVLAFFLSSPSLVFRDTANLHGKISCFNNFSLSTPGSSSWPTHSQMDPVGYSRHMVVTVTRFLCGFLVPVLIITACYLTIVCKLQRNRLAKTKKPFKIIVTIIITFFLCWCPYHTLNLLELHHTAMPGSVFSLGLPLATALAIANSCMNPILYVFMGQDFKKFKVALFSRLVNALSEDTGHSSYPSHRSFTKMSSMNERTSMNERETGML
Method: HEK293A cells (Invitrogen) expressing CMKLR1 and Gα15 were seeded at 5*10^4 cells/well in a poly-D-lysine coated 96-well black well/clear bottom plate (BD Falcon) and cultured overnight. From eighteen to twenty-four hours later, cells were loaded with FLUO4-AM (Invitrogen). Then the cells were washed two times with C1 solution (130 mM NaCl, 5 mM KCl, 10 mM HEPES pH 7.4, 2 mM CaCl2, and 10 mM Glucose). After the final wash, a 100 µL of residual volume remained on the cells. Peptides were dissolved in 10% DMSO to a concentration of 1 mM and were diluted in C1 solution with 0.1 % BSA. They were aliquoted as 2x solutions in 96-well plates and were simultaneously transferred by the robotic system within the imager from the ligand plate to the cell plate. […] Fluorescence data was generated in duplicate and experiments were repeated for at least three times. […] For the calculation of concentration-response curves, signals of two wells receiving the same concentration of test substances were averaged and the fluorescence changes of corresponding buffer C1 wells were subtracted. Signals were normalized to background fluorescence. For the calculation of EC50 values, plots of amplitude versus concentrations were prepared in SigmaPlot 11.

[1] = In vitro peptide stability in human serum (RP-HPLC); conditions: for half-life at 50 µg/mL / half-life: human; for half-life at 50 µg/mL: human serum, 25% (v/v) in RPMI; for half-life: serum

Molecule | max response (human CMKLR1) | EC50 (human CMKLR1) [nM] | half-life at 50 µg/mL [1] [min] | also measured
C[C@H](NC(=O)[C@H](Cc1ccc(O)cc1)NC(=O)[C@H](CCC(N)=O)NC(=O)CNC(=O)[C@@H]1CCCN1C(=O)[C@H](CCCNC(=N)N)NC(=O)[C@@H](N)Cc1ccc(O)cc1)C(=O)N[C@@H](Cc1ccccc1)C(=O)N[C@H](CO)C(=O)O [compound 84] (H-YRPGQYAF[dS]-OH; N-terminus assumed) | 1,84 DF/F0 | – | – | t1/2 ([1]; metabolic stability in human serum): 21 min
CC(C)C[C@H](NC(=O)[C@@H](N)Cc1ccc(O)cc1)C(=O)N1CCC[C@H]1C(=O)NCC(=O)N[C@@H](CCC(N)=O)C(=O)N[C@@H](C)C(=O)N[C@H](Cc1ccccc1)C(=O)N[C@@H](Cc1ccccc1)C(=O)N[C@@H](CCCCN)C(=O)O [compound 78] (H-YLPGQA[dF]FK-OH; N-terminus assumed) | 1,15 DF/F0 | 233000 | 24 | –
YLPGYLPGH-OH [compound 77] | 1,04 DF/F0 | 217000 | 17 | –
YFPGQFAFG-OH | – | – | 13 ± 1 | –
CC(C)C[C@H](NC(=O)[C@@H](N)Cc1ccc(O)cc1)C(=O)N1CCC[C@H]1C(=O)N[C@H](CC(C)C)C(=O)NCC(=O)N[C@@H](Cc1ccc(O)cc1)C(=O)N[C@@H](C)C(=O)N1CCC[C@@H]1C(=O)N[C@H](Cc1ccccc1)C(=O)O [compound 151] (H-YLP[dL]GYA[dP][dF]-OH; N-terminus assumed) | 1,47 DF/F0 | 298 | 91 | –
YFPGQYAFF-OH [compound 30] | 0,98 DF/F0 | 1.89 | 26 | –
CC(C)C[C@H](NC(=O)[C@@H]1CCCN1)C(=O)N1CCC[C@H]1C(=O)NCC(=O)N[C@@H](CCC(N)=O)C(=O)N[C@H](Cc1ccccc1)C(=O)N[C@@H](C)C(=O)N[C@@H](Cc1ccccc1)C(=O)N[C@@H](Cc1ccccc1)C(=O)O [compound 58] (H-PLPGQ[dF]AFF-OH; N-terminus assumed) | 0,81 DF/F0 | 286 | 33 | –
YLPGQYAFY-OH [compound 48] | 0,92 DF/F0 | 15.6 | 16 | –
CC(C)C[C@H](NC(=O)[C@H](N)Cc1ccccc1)C(=O)N1CCC[C@H]1C(=O)NCC(=O)N[C@@H](CCC(N)=O)C(=O)N[C@@H](Cc1ccc(O)cc1)C(=O)N[C@@H](C)C(=O)N[C@@H](Cc1ccccc1)C(=O)N[C@@H](Cc1ccccc1)C(=O)O [compound 55] (H-[dF]LPGQYAFF-OH; N-terminus assumed) | 0,73 DF/F0 | 92.9 | 230 | –
FLPGQYAFL-OH [compound 46] | 1,06 DF/F0 | 13.5 | 28 | –
FLPGALGFF-OH [compound 60] | 0,69 DF/F0 | 406 | 19 | –
C[C@@H](NC(=O)[C@H](Cc1ccccc1)NC(=O)[C@H](Cc1ccccc1)NC(=O)[C@@H](CO)NC(=O)[C@@H]1CCCN1C(=O)[C@@H](Cc1ccc(O)cc1)NC(=O)[C@H](N)Cc1ccc(O)cc1)C(=O)N[C@@H](Cc1ccccc1)C(=O)N1CCC[C@H]1C(=O)O [compound 154] (H-[dY][dY]P[dS]FF[dA]FP-OH; N-terminus assumed) | – | – | 374 | –
CC(C)C[C@H](NC(=O)[C@H](N)Cc1ccc(O)cc1)C(=O)N1CCC[C@H]1C(=O)NCC(=O)N[C@@H](CCC(N)=O)C(=O)N[C@@H](Cc1ccc(O)cc1)C(=O)N[C@@H](C)C(=O)N[C@@H](Cc1ccccc1)C(=O)N[C@@H](Cc1ccccc1)C(=O)O (H-[dY]LPGQYAFF-OH; N-terminus assumed) | – | – | 135 ± 39 | –
CC(C)C[C@H](NC(=O)[C@@H](N)Cc1ccc(O)cc1)C(=O)N1CCC[C@H]1C(=O)NCC(=O)N[C@@H](CCC(N)=O)C(=O)N[C@@H](Cc1ccc(O)cc1)C(=O)N[C@@H](C)C(=O)N[C@@H](Cc1ccccc1)C(=O)N[C@H](Cc1ccccc1)C(=O)O (H-YLPGQYAF[dF]-OH) | – | – | – | half-life [1]: 36 ± 4 min
CC(C)C[C@H](NC(=O)[C@H](N)Cc1ccc(O)cc1)C(=O)N1CCC[C@H]1C(=O)NCC(=O)N[C@@H](CCC(N)=O)C(=O)N[C@@H](Cc1ccc(O)cc1)C(=O)N[C@@H](C)C(=O)N[C@@H](Cc1ccccc1)C(=O)N[C@@H](CO)C(=O)O (H-[dY]LPGQYAFS-OH) | – | – | – | half-life [1]: 77 ± 5 min
YFPGHFAFS-NH2 | – | – | – | stability: t1/2 ±SD ([1]; peptide half life in human serum (25% v/v in RPMI, 37°C), HPLC assay, mean of three independent experiments ± SD): 17 ± 4 min
CC(C)C[C@H](NC(=O)[C@@H](N)Cc1ccc(O)cc1)C(=O)N1CCC[C@H]1C(=O)NCC(=O)N[C@@H](CCC(N)=O)C(=O)N[C@@H](Cc1ccc(O)cc1)C(=O)N[C@@H](C)C(=O)N[C@@H](Cc1ccccc1)C(=O)N[C@H](CO)C(=O)O (H-YLPGQYAF[dS]-OH; N-terminus assumed) | – | – | 22 ± 2 | –
CC(C)C[C@H](NC(=O)[C@H](Cc1ccccc1)NC(=O)[C@H](Cc1ccc(O)cc1)NC(=O)[C@@H]1CCCN1C(=O)[C@H]1CCCN1C(=O)[C@@H]1CCCN1C(=O)[C@H](CC(C)C)NC(=O)[C@H](N)Cc1ccc(O)cc1)C(=O)N[C@H](Cc1ccccc1)C(=O)O [compound 143] (H-[dY]LP[dP]PYFL[dF]-OH; N-terminus assumed) | 1,62 DF/F0 | 139 | – | –
YFPGHFAFS-NH2 [compound 7] | 1,55 DF/F0 | – | – | –
FLPGQFAFS-NH2 [compound 3] | 1,77 DF/F0 | 41.3 | – | –
NC(=O)CC[C@H](NC(=O)CNC(=O)[C@@H]1CCCN1C(=O)[C@@H](Cc1ccccc1)NC(=O)[C@H](N)Cc1ccccc1)C(=O)N[C@@H](Cc1ccccc1)C(=O)NCC(=O)N[C@H](Cc1ccc(O)cc1)C(=O)N[C@H](CC(N)=O)C(N)=O [compound 15] (H-[dF][dF]PGQFG[dY][dN]-NH2; N-terminus assumed) | 1,47 DF/F0 | 3470 | – | –
C[C@H](NC(=O)[C@H](Cc1ccccc1)NC(=O)[C@H](CCC(N)=O)NC(=O)CNC(=O)[C@H]1CCCN1C(=O)CNC(=O)[C@@H]1CCCN1)C(=O)N[C@@H](Cc1ccccc1)C(=O)N[C@H](CO)C(=O)O [compound 97] (H-PG[dP]GQFAF[dS]-OH; N-terminus assumed) | 1,72 DF/F0 | 100 | – | –
YFPGQWAWS-NH2 [compound 9] | 1,61 DF/F0 | 1880 | – | –
C[C@H](NC(=O)[C@H](Cc1c[nH]c2ccccc12)NC(=O)[C@H](CCC(N)=O)NC(=O)CNC(=O)[C@@H]1CCCN1C(=O)[C@H](Cc1c[nH]c2ccccc12)NC(=O)[C@@H](N)Cc1ccc(O)cc1)C(=O)N[C@H](Cc1ccccc1)C(=O)N[C@@H](CS)C(N)=O [compound 22] (H-YWPGQWA[dF]C-NH2; N-terminus assumed) | 0,44 DF/F0 | 18600 | – | –
C[C@H](NC(=O)[C@H](Cc1ccc(O)cc1)NC(=O)[C@@H](CCC(N)=O)NC(=O)CNC(=O)[C@@H]1CCCN1C(=O)[C@@H](Cc1ccc(O)cc1)NC(=O)[C@@H](N)Cc1ccc(O)cc1)C(=O)N[C@@H](Cc1ccc(O)cc1)C(=O)N[C@@H](CO)C(N)=O [compound 19] (H-Y[dY]PG[dQ]YAYS-NH2; N-terminus assumed) | 0,42 DF/F0 | 9550 | – | –
C[C@H](NC(=O)[C@H](Cc1ccccc1)NC(=O)[C@@H](CCC(N)=O)NC(=O)CNC(=O)[C@H](Cc1ccccc1)NC(=O)[C@H](C)NC(=O)[C@@H](N)Cc1ccccc1)C(=O)N[C@@H](Cc1ccccc1)C(=O)N[C@H](CO)C(=O)O [compound 114] (H-FAFG[dQ]FAF[dS]-OH; N-terminus assumed) | 1,24 DF/F0 | 2440 | – | –
NC(=O)CC[C@H](NC(=O)CNC(=O)[C@@H]1CCCN1C(=O)[C@H](Cc1ccccc1)NC(=O)[C@H](N)Cc1ccccc1)C(=O)N[C@@H](Cc1c[nH]c2ccccc12)C(=O)NCC(=O)N[C@@H](Cc1ccccc1)C(=O)N[C@@H](CO)C(N)=O [compound 12] (H-[dF]FPGQWGFS-NH2; N-terminus assumed) | 1,56 DF/F0 | 3010 | – | –
CC(C)C[C@H](NC(=O)CNC(=O)[C@H](Cc1ccc(O)cc1)NC(=O)[C@H](CC(C)C)NC(=O)[C@H](N)Cc1ccccc1)C(=O)N[C@@H](Cc1ccc(O)cc1)C(=O)N[C@@H](C)C(=O)N[C@@H](Cc1ccccc1)C(=O)N1CCC[C@@H]1C(=O)O [compound 108] (H-[dF]LYGLYAF[dP]-OH; N-terminus assumed) | 1,61 DF/F0 | 1210 | – | –
CC[C@@H](C)[C@@H](NC(=O)[C@H](Cc1ccccc1)NC(=O)[C@H](CCC(N)=O)NC(=O)CNC(=O)[C@@H]1CCCN1C(=O)[C@H](Cc1ccccc1)NC(=O)[C@H](N)Cc1c[nH]c2ccccc12)C(=O)N[C@@H](Cc1ccccc1)C(=O)N[C@@H](CO)C(N)=O [compound 18] (H-[dW]FPGQF[dI]FS-NH2; N-terminus assumed) | 1,40 DF/F0 | 7130 | – | –
